Legend:
[1] = system: HN-Aβ complex (A549 cell-conditioned media); assay: ELISA, HN found in a complex with Aβ in A549 cell-conditioned media; format: binding, human; conditions: 6E10 or 82E1 on wells, relative to samples without ATP, three experiments in triplicate, Fig. 5A
Procedure: Human NSCLC cell lines, A549 (ATCC CCL‐185) and H1299 (ATCC CRL‐5803), were purchased from the American Type Culture Collection (ATCC, Manassas, VA, USA). Cells were seeded as we reported earlier in 5 mL HyClone Dulbecco's modified Eagle's medium/nutrient mixture F‐12 (DMEM/F12) (GE Healthcare Life Sciences, Pittsburgh, PA, USA), supplemented with 10% Fetalgro bovine growth serum (FBS; RMBIO, Missoula, MT, USA), 50 U·mL^−1 penicillin, and […] streptomycin (Invitrogen, Life Technologies, Carlsbad, CA, USA) in 25‐cm^2 tissue culture flasks, and allowed to grow overnight in an incubator at 37 °C, 95% humidity, and 5% CO2. The cells were counted after trypan blue staining, with a hemocytometer.
ELISAs were carried out as we previously reported. […] TBST was then used to wash the wells 4× before proceeding in one of two ways: (a) biotinylated samples were analyzed by adding 100 µL streptavidin–HRP conjugate in TBST (1 : 2500 dilution) to the samples followed by incubation for 3 h at RT on a shaker, or (b) samples without biotin were analyzed by adding 100 µL TBST containing the primary antibody as per the manufacturer's recommendation, incubating for 3 h at RT on a shaker, followed by washing the wells 4× with TBST. […] The reaction was stopped with 100 µL 2 M H2SO4 after incubating at RT for 0.5–15 min, resulting in a yellow color change, measured by absorbance at 450 nm. […]

Aβ40 [2] = conditions: HN and AChE compared; cited from earlier work
Description: Amino acid residues involved in direct interactions between HN and Aβ40 were identified previously by molecular modeling. The specific epitopes at the binding interface between HN and Aβ40 were identified, by proteolytic epitope excision and extraction in addition to affinity–mass spectrometric data analysis, to be HN (5–15) and Aβ (17–28). […] Inhibiting the 17–28 region of Aβ reduced aggregation of the neurotoxic amyloid fibrils and related cytotoxicity in SH‐SY5Y, a human neuroblastoma cell ... || Humanin has been previously reported to bind amino acid residues 17–28 of Aβ (Fig. 1). AChE is also known to bind Aβ (1–16) and the Aβ (12–28) region (Fig. 1). Since the binding sites of AChE and HN on Aβ are overlapping, we previously investigated whether HN and AChE can simultaneously bind Aβ [79].

Aβ42 = assay: ELISA, binding of biotinylated-HN to immobilised Aβ42; conditions: Aβ 100 nM on wells, biotinylated-HN 300 nM, increasing HS; three independent assays; Fig. 2B
Procedure: (§1) ELISAs were carried out as we previously reported. Nunc MaxiSorp 96‐well flat bottom plate (Thermo Fisher) wells were coated with samples as indicated. The plates were incubated overnight at 4 °C on a shaker to allow binding of the samples to the plate wells. After the incubation, the wells were washed 4× with TBST, filled with 400 µL blocking buffer (110 mM KCl, 5 mM NaHCO3, 5 mM MgCl2, 1 mM EGTA, 0.1 mM CaCl2, 20 mM HEPES, 1% BSA, pH 7.4), and incubated with shaking overnight at 4 °C. The wells were then washed 4× with TBST, and 100 µL of sample at the desired concentration was added to each well and incubated with shaking overnight at 4 °C. TBST was then used to wash the wells 4× before proceeding in one of two ways: (a) biotinylated samples were analyzed by adding 100 µL streptavidin–HRP conjugate in TBST (1 : 2500 dilution) to the samples followed by incubation for 3 h at RT on a shaker, or (b) samples without biotin were analyzed by adding 100 µL TBST containing the primary antibody as per the manufacturer's recommendation, incubating for 3 h at RT on a shaker, followed by washing the wells 4× with TBST. […] The reaction was stopped with 100 µL 2 M H2SO4 after incubating at RT for 0.5–15 min, resulting in a yellow color change, measured by absorbance at 450 nm. […] Statistical analysis was determined by the […] […] Data were expressed as the mean ± SD. […]

Aβ40 [3] = assay: ELISA, binding of biotinylated-HN to immobilised Aβ40; conditions: Aβ 100 nM on wells, biotinylated-HN 300 nM, increasing HS; three independent assays; Fig. 2B
Procedure: as §1

## Nc1ncnc2c1ncn2[C@@H]1O[C@H](COP(=O)(O)OP(=O)(O)OP(=O)(O)O)[C@@H](O)[C@H]1O [ATP, Adenosine triphosphate]
[1]; 100 μM ATP
  increase in the amount of HN bound to Aβ: ~ 1.85 fold
[1]; 1 mM ATP
  increase in the amount of HN bound to Aβ: ~ 2.5 fold

## Humanin [HN]
Aβ40 [2]
  affinity for Aβ40: comparable affinities

## heparan sulfate [HS]
Aβ42
  effect of HS on binding of HN to Aβ42: No effects
Aβ40 [3]
  effect of HS on binding of HN to Aβ40: No effects
